{"source": "patent US8962621B2", "about": "(Shanghai Institute of Pharmaceutical Industry, priority 2010, dated 2015)", "key": {"[1]": {"test_system": "rats", "experiment": "Learned helplessness experiment (conditioned avoidance test)", "assay_type": "in vivo", "conditions": "for Incubation period of escape / Number of times of successful avoidance: one week, test 24 h after last administration, n = 10", "text": "(1) Principles • This is an animal model of depression. In this experiment, an animal is placed under conditions with aversive stimulus which it can't escape. […] This is a well recognized depression state, in which the level of catecholamine in the animal's brain is reduced. An antidepressant can act against this state. The learned helplessness model is sensitive to a variety of antidepressants used in a sub-long period (3-7 d), including tricyclic antidepressants, monoamine oxidase inhibitors, monoamine reuptake inhibitors and atypical antidepressants.\n(2) Test Method • The animals are grouped. The pre-shock animals are generated the first day by performing inescapable electric shock. The pre-shock animals are given foot electric shock (0.8 mA, 15 s) for 60 times (1 min interval). Rats in the control group are only put into the cage for a same period of time but without any electric shock. • The administration of drugs starts the next day and lasts for one week. […] The conditioned avoidance test is conducted 24 h after the last administration to determine the number of times of successful avoidance and the incubation period of escape."}, "[2]": {"biological_target": "5-HT Transporter (hSERT) (Homo sapiens, UniProt P31645)", "sequence (P31645 whole entry)": "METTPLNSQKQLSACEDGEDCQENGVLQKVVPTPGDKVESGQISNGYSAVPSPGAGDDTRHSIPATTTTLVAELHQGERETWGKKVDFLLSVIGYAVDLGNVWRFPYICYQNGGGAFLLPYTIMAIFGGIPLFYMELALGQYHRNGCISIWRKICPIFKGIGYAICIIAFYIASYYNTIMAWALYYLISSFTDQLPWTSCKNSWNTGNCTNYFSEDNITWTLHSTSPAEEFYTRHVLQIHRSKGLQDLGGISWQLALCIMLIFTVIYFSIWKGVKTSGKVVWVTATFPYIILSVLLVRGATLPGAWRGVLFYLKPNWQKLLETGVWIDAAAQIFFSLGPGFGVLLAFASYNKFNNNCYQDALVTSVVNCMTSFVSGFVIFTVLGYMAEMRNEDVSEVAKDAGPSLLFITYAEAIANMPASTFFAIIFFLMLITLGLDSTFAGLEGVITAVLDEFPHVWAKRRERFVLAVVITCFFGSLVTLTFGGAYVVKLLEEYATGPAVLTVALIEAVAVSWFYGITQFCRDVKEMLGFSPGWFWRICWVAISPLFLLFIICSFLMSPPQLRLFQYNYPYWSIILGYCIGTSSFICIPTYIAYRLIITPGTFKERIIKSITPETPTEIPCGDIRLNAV", "experiment": "Inhibition of [3H]-5-HT reuptake in HEK 293 cells stably expressing hSERT;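 note: compound preincubated 10 min at 30 °C, then 10 min uptake, filter-bound radioactivity counted by scintillation, inhibition relative to total (blank) minus non-specific (positive control) uptake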"}, "[3]": {"biological_target": "NA Transporter (hNAT) (Homo sapiens, UniProt P23975)", "sequence (P23975 whole entry)": "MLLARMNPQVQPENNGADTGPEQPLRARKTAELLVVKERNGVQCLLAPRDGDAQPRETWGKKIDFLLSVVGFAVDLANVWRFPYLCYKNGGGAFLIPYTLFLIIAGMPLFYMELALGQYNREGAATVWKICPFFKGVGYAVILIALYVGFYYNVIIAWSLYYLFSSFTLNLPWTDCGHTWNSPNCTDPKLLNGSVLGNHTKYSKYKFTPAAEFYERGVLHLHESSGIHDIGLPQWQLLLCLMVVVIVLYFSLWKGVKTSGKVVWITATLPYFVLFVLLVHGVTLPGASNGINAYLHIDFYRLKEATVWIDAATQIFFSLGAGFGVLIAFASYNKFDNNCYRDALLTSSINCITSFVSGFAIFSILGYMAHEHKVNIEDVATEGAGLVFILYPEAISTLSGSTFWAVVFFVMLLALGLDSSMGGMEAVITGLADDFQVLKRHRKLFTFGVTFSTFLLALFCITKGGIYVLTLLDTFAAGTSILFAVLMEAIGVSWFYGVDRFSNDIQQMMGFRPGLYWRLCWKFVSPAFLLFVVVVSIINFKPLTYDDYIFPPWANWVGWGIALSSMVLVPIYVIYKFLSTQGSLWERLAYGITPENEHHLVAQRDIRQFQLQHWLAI", "experiment": "Inhibition of [3H]-NA reuptake in HEK 293 cells stably expressing hNAT", "conditions": "HEK293, read-out: NA Reuptake Inhibition"}, "[4]": {"biological_target": "DA Transporter (hDAT) (Homo sapiens, UniProt Q01959)", "sequence (Q01959 whole entry)": "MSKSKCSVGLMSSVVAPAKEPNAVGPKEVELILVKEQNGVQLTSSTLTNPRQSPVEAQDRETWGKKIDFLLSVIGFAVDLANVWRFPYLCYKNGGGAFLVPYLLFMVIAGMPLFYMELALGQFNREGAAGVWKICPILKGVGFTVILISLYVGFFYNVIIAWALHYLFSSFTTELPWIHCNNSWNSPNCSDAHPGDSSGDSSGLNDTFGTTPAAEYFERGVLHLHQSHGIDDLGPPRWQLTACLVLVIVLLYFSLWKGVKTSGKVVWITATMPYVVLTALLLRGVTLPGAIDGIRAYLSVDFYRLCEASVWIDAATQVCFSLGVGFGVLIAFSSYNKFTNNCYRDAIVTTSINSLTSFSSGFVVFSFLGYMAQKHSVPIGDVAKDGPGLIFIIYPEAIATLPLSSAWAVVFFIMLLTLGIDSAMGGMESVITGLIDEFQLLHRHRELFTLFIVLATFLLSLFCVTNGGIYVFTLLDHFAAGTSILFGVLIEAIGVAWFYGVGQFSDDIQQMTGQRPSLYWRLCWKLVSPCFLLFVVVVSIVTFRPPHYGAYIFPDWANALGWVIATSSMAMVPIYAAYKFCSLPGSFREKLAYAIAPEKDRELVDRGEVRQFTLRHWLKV", "experiment": "Inhibition of [3H]-DA reuptake in HEK 293 cells stably expressing hDAT", "conditions": "HEK293, read-out: DA Reuptake Inhibition"}, "[5]": {"test_system": "5-HT reuptake", "experiment": "5-Hydroxytryptophan (DL-5-HTP) potentiation in mice (head twitches)", "assay_type": "in vivo", "conditions": "for Frequency of head twitches 0 (number of mice) / Frequency of head twitches I (number of mice) / Frequency of head twitches II (number of mice) / Frequency of head twitches III (number of mice): Pargyline 75 mg/kg s.c., DL-5-HTP i.v.", "text": "Tests of the 5-hydroxytryptophan (DL-5-HTP) potentiation in mice, Yohimbine toxicity enhancement in mice and oxidation tremors can verify a compound's inhibition effect on 5-HT, NA and DA reuptake. Compound VI-2 is selected for the tests.\na) Principles • Taking DL-5-HTP as the precursor of 5-HT, the MAOs inhibitor Pargyline can inhibit the enzymatic degradation […]. While in mice, characteristic symptoms—head twitches can be observed.\nb) Test Method • Three different dosages of VI-2 are used: 30, 15 and 7.5 mg/kg. The mouse is treated as follows: first, intraperitoneal injection of the compound, 0.2 mL/10 g; 30 min later, subcutaneous injection of Pargyline, 75 mg/kg; and 90 min later, intraveneous injection of DL-5-HTP. The induced head twitches of the mouse are observed 15 min later."}, "[6]": {"conditions": "Venlafaxine 30 mg/kg, VI-2 at 3 doses (20, 10, 5 mg/kg)"}}}
{"smiles": "CN(C)CCC(c1ccc(Cl)c(Cl)c1)N1CCCC1", "note": "(stereo not shown) [VI-2, N,N-dimethyl-3-(3,4-dichlorophenyl)-3-(pyrrolidin-1-yl)-propylamine]", "values": [{"measurement": "Incubation period of escape", "setting": "[1]; 5 mg/kg", "value": "140.3 ± 195.44", "unit": "s"}, {"measurement": "Number of times of successful avoidance", "setting": "[1]; 5 mg/kg", "value": "21.2 ± 6.73"}, {"measurement": "Incubation period of escape", "setting": "[1]; 10 mg/kg", "value": "188.3 ± 178.38", "unit": "s"}, {"measurement": "Number of times of successful avoidance", "setting": "[1]; 10 mg/kg", "value": "19.5 ± 8.83"}, {"measurement": "Incubation period of escape", "setting": "[1]; 20 mg/kg", "value": "171.1 ± 159.69", "unit": "s"}, {"measurement": "Number of times of successful avoidance", "setting": "[1]; 20 mg/kg", "value": "18.9 ± 9.35"}, {"measurement": "incubation period of escape (in words)", "setting": "[1]; [6]", "value": "significantly shortened incubation period of escape"}, {"measurement": "times of successful avoidance (in words)", "setting": "[1]; [6]", "value": "relatively more times of successful avoidance"}, {"measurement": "inhibition effect towards the reuptake of 5-HT (in words)", "setting": "[2]", "value": "relatively strong inhibition effect"}, {"measurement": "inhibition at 10 µM", "setting": "[2]; HEK293, read-out: 5-HT Reuptake Inhibition", "value": 94.8, "unit": "%"}, {"measurement": "inhibition at 10 µM", "setting": "[3]", "value": 100, "unit": "%"}, {"measurement": "inhibition at 10 µM", "setting": "[4]", "value": 103, "unit": "%"}, {"measurement": "Frequency of head twitches 0 (number of mice)", "setting": "[5]; 7.5 mg/kg intraperitoneal", "value": 1}, {"measurement": "Frequency of head twitches I (number of mice)", "setting": "[5]; 7.5 mg/kg intraperitoneal", "value": 3}, {"measurement": "Frequency of head twitches II (number of mice)", "setting": "[5]; 7.5 mg/kg intraperitoneal", "value": 6}, {"measurement": "Frequency of head twitches III (number of mice)", "setting": "[5]; 7.5 mg/kg intraperitoneal", "value": 0}, {"measurement": "Frequency of head twitches 0 (number of mice)", "setting": "[5]; 15 mg/kg intraperitoneal", "value": 0}, {"measurement": "Frequency of head twitches I (number of mice)", "setting": "[5]; 15 mg/kg intraperitoneal", "value": 0}, {"measurement": "Frequency of head twitches II (number of mice)", "setting": "[5]; 15 mg/kg intraperitoneal", "value": 4}, {"measurement": "Frequency of head twitches III (number of mice)", "setting": "[5]; 15 mg/kg intraperitoneal", "value": 6}, {"measurement": "Frequency of head twitches 0 (number of mice)", "setting": "[5]; 30 mg/kg intraperitoneal", "value": 0}, {"measurement": "Frequency of head twitches I (number of mice)", "setting": "[5]; 30 mg/kg intraperitoneal", "value": 0}, {"measurement": "Frequency of head twitches II (number of mice)", "setting": "[5]; 30 mg/kg intraperitoneal", "value": 0}, {"measurement": "Frequency of head twitches III (number of mice)", "setting": "[5]; 30 mg/kg intraperitoneal", "value": 10}, {"measurement": "enhancement of the effect of 5-HTP (in words)", "setting": "[5]; 30, 15 and 7.5 mg/kg, significant dose-effect relationship", "value": "significantly enhance the effect of 5-HTP"}]}
